Measurements from patent publication US20230270713A1, “Administration of Resiniferatoxin For Treatment of Bladder Pain or Bladder Cancer” (Sorrento Therapeutics, Inc., priority 2020, published 2023).
Several values for one entry are separate records, joined by “and”; a condition that tells them apart may be missing. Equal entries are not always repeated. Where two headings read alike, the source gives them in different places.

Experiment: Pharmacokinetic/toxicokinetic profile of RTX after intravesical instillation in dogs
Format: in vivo, dog
Procedure: Local tolerance and the pharmacokinetic (PK), and toxicokinetic (TK) profile of RTX in dogs was determined after a single instillation of RTX into the bladder of dogs (n=6). The RTX formulations were prepared using aseptic techniques in a biological safety cabinet (BSC) by mixing the appropriate amount of diluent with the appropriate amount of RTX. Dosing formulation concentrations used were 1 and 10 mcg/mL.
Three male and three female dogs ranging in weight from 5.95 to 8.60 kg were used in the study. The dogs were assigned into Group 1 (receiving a dose of 1 mcg/mL RTX) or Group 2 (receiving a dose of 10 mcg/mL RTX) as shown in the Table 3 below.
RTX was administered via intravesical instillation into the urinary bladder. The animals were given a single dose of 25 or 250 mcg/dose in a total volume of 25 mL on Day 1 over a period of 1 hour (±5 minutes). RTX and diluent were administered to the dogs under general anesthesia via a Foley catheter placed into the bladder for 1 hour (±5 minutes).
Blood samples were collected from all animals on Day 1 pre-dose and at 0.5, 1, 2, 4, 6, 12, 24, 36, 48, 60, and 72 hours post-dose. The toxicokinetic (TK) parameters were determined for RTX, and if appropriate, the metabolites, from mean concentration-time data.
Cmax is the observed maximum plasma concentration from the start of dosing. Tmax is the time to reach the Cmax. AUC(0-T) is the area under the plasma concentration-time curve from time zero to the last measurable time point calculated by the linear trapezoidal rule.

[1] = male dogs 1003, 1005 individual, 250 mcg intravesical
[2] = male dogs, 250 mcg intravesical

With `C=C(C)[C@]12C[C@@H](C)[C@@]34O[C@](Cc5ccccc5)(O[C@@H]1[C@@H]3C=C(COC(=O)Cc1ccc(O)c(OC)c1)C[C@]1(O)C(=O)C(C)=C[C@@H]41)O2` [RTX, resiniferatoxin] the “time by which RTX plasma concentrations fell to zero” value (male and female dogs, 250 mcg, post-dose) was at most 4 h, the “absorption into the systemic circulation” value (male and female dogs, single 250 mcg intravesical instillation) was “absorbed rapidly” and the “Plasma concentration of RTX” value (male dog 1001, 25 mcg intravesical, 0.5 h) was “BQL (*BQL—Below quantifiable limit (<50.0 pg/mL); adequate signal-to-noise enabled reporting value as estimate)”. The “Plasma concentration of RTX” value (male dog 1001, 25 mcg intravesical, 2 h) was “BQL (*BQL—Below quantifiable limit (<50.0 pg/mL); adequate signal-to-noise enabled reporting value as estimate)”, the “Plasma concentration of RTX” value (male dog 1001, 25 mcg intravesical, 4 h) was “BQL (*BQL—Below quantifiable limit (<50.0 pg/mL); adequate signal-to-noise enabled reporting value as estimate)” and the “Plasma concentration of RTX” value (male dog 1001, 25 mcg intravesical, 6 h) was “BQL (*BQL—Below quantifiable limit (<50.0 pg/mL); adequate signal-to-noise enabled reporting value as estimate)”. The “Plasma concentration of RTX” value (male dog 1001, 25 mcg intravesical, 12 h) was “BQL (*BQL—Below quantifiable limit (<50.0 pg/mL); adequate signal-to-noise enabled reporting value as estimate)”, the “Plasma concentration of RTX” value (male dog 1001, 25 mcg intravesical, 24 h) was “BQL (*BQL—Below quantifiable limit (<50.0 pg/mL); adequate signal-to-noise enabled reporting value as estimate)” and the “Plasma concentration of RTX” value (male dog 1001, 25 mcg intravesical, 36 h) was “BQL (*BQL—Below quantifiable limit (<50.0 pg/mL); adequate signal-to-noise enabled reporting value as estimate)”. The “Plasma concentration of RTX” value (male dog 1001, 25 mcg intravesical, 48 h) was “BQL (*BQL—Below quantifiable limit (<50.0 pg/mL); adequate signal-to-noise enabled reporting value as estimate)”, the “Plasma concentration of RTX” value (male dog 1001, 25 mcg intravesical, 60 h) was “BQL (*BQL—Below quantifiable limit (<50.0 pg/mL); adequate signal-to-noise enabled reporting value as estimate)” and the “Plasma concentration of RTX” value (male dog 1001, 25 mcg intravesical, 72 h) was “BQL (*BQL—Below quantifiable limit (<50.0 pg/mL); adequate signal-to-noise enabled reporting value as estimate)”. For the same compound, the “Plasma concentration of RTX” value (male dog 1001, 25 mcg intravesical, Predose) was “BQL (*BQL—Below quantifiable limit (<50.0 pg/mL); adequate signal-to-noise enabled reporting value as estimate)”, the “AUC(0-T)” value [1] was 0.365 ng·h/mL and the “AUC(0-T)/Dose” value [1] was 1.42 pg·h/mL/µg and 1.46 pg·h/mL/µg. The Cmax [1] was 0.44 ng/mL, the Cmax/Dose [1] was 1.06 pg/mL/µg and 1.76 pg/mL/µg and the “Plasma concentration of RTX” value (male dogs 1003, 1005 individual, 250 mcg intravesical, 0.5 h) was 0.44 ng/mL. The “Plasma concentration of RTX” value (male dogs 1003, 1005 individual, 250 mcg intravesical, 1 h) was 0.151 ng/mL, the “Plasma concentration of RTX” value (male dogs 1003, 1005 individual, 250 mcg intravesical, 2 h) was 0.0633 ng/mL and the “Plasma concentration of RTX” value (male dogs 1003, 1005 individual, 250 mcg intravesical, 4 h) was 0 ng/mL. The “Plasma concentration of RTX” value (male dogs 1003, 1005 individual, 250 mcg intravesical, 6 h) was 0 ng/mL, the “Plasma concentration of RTX” value (male dogs 1003, 1005 individual, 250 mcg intravesical, 12 h) was 0 ng/mL and the “Plasma concentration of RTX” value (male dogs 1003, 1005 individual, 250 mcg intravesical, 24 h) was 0 ng/mL. For the same compound, the “Plasma concentration of RTX” value (male dogs 1003, 1005 individual, 250 mcg intravesical, 36 h) was 0 ng/mL, the “Plasma concentration of RTX” value (male dogs 1003, 1005 individual, 250 mcg intravesical, 48 h) was 0 ng/mL and the “Plasma concentration of RTX” value (male dogs 1003, 1005 individual, 250 mcg intravesical, 60 h) was 0 ng/mL. The “Plasma concentration of RTX” value (male dogs 1003, 1005 individual, 250 mcg intravesical, 72 h) was 0 ng/mL, the “Plasma concentration of RTX” value (male dogs 1003, 1005 individual, 250 mcg intravesical, Predose) was 0 ng/mL and the “AUC(0-T)/Dose, Mean” value [2] was 1.44 pg·h/mL/µg. The “Cmax/Dose, Mean” value [2] was 1.41 pg/mL/µg, the “Plasma concentration of RTX, Mean” value (male dogs, 250 mcg intravesical, Predose) was 0 ng/mL and the AUC(0-t) (male, dog, plasma, 250 ug, male dogs 1003, 1005 individual, 250 mcg intravesical, read-out: AUC(0-T)) was 0.356 ng·h/mL. It also gave a Cmax (male, dog, plasma, 250 ug, male dogs 1003, 1005 individual, 250 mcg intravesical, read-out: Cmax) of 0.264 ng/mL, a Tmax (male, dog, plasma, 250 ug, male dogs 1003, 1005 individual, 250 mcg intravesical, read-out: Tmax) of 60 min and an AUC(0-t) (male, dog, plasma, 250 ug, male dogs, 250 mcg intravesical, read-out: AUC(0-T), Mean) of 0.361 ± 0.00636 ng·h/mL. The Cmax (male, dog, plasma, 250 ug, male dogs, 250 mcg intravesical, read-out: Cmax, Mean) was 0.352 ± 0.124 ng/mL, the Tmax (male, dog, plasma, 250 ug, male dogs, 250 mcg intravesical, read-out: Tmax, Mean) was 45 ± 21.2 min and the Tmax (male, dog, plasma, other: intravesical instillation, 250 ug, male dogs, 250 mcg intravesical, read-out: Tmax, Mean) was 45 min. For the same compound, the concentration at 1 h (male, dog, plasma, other: intravesical instillation, 25 mcg, male dog 1001, 25 mcg intravesical, 1 h, read-out: Plasma concentration of RTX) was 0.0155 ng/mL, the concentration at 0.5 h (male, dog, plasma, other: intravesical instillation, 250 mcg, male dogs 1003, 1005 individual, 250 mcg intravesical, 0.5 h, read-out: Plasma concentration of RTX) was 0.257 ng/mL and the concentration at 1 h (male, dog, plasma, other: intravesical instillation, 250 mcg, male dogs 1003, 1005 individual, 250 mcg intravesical, 1 h, read-out: Plasma concentration of RTX) was 0.264 ng/mL. The concentration at 2 h (male, dog, plasma, other: intravesical instillation, 250 mcg, male dogs 1003, 1005 individual, 250 mcg intravesical, 2 h, read-out: Plasma concentration of RTX) was 0.0597 ng/mL, the concentration at 4 h (male, dog, plasma, other: intravesical instillation, 250 mcg, male dogs 1003, 1005 individual, 250 mcg intravesical, 4 h, read-out: Plasma concentration of RTX) was 0 ng/mL and the concentration at 6 h (male, dog, plasma, other: intravesical instillation, 250 mcg, male dogs 1003, 1005 individual, 250 mcg intravesical, 6 h, read-out: Plasma concentration of RTX) was 0 ng/mL. It also gave a concentration at 12 h (male, dog, plasma, other: intravesical instillation, 250 mcg, male dogs 1003, 1005 individual, 250 mcg intravesical, 12 h, read-out: Plasma concentration of RTX) of 0 ng/mL, a concentration at 24 h (male, dog, plasma, other: intravesical instillation, 250 mcg, male dogs 1003, 1005 individual, 250 mcg intravesical, 24 h, read-out: Plasma concentration of RTX) of 0 ng/mL and a concentration at 36 h (male, dog, plasma, other: intravesical instillation, 250 mcg, male dogs 1003, 1005 individual, 250 mcg intravesical, 36 h, read-out: Plasma concentration of RTX) of 0 ng/mL. It also gave a concentration at 48 h (male, dog, plasma, other: intravesical instillation, 250 mcg, male dogs 1003, 1005 individual, 250 mcg intravesical, 48 h, read-out: Plasma concentration of RTX) of 0 ng/mL, a concentration at 60 h (male, dog, plasma, other: intravesical instillation, 250 mcg, male dogs 1003, 1005 individual, 250 mcg intravesical, 60 h, read-out: Plasma concentration of RTX) of 0 ng/mL and a concentration at 72 h (male, dog, plasma, other: intravesical instillation, 250 mcg, male dogs 1003, 1005 individual, 250 mcg intravesical, 72 h, read-out: Plasma concentration of RTX) of 0 ng/mL. For the same compound, the concentration at 0.5 h (male, dog, plasma, other: intravesical instillation, 250 mcg, male dogs, 250 mcg intravesical, 0.5 h, read-out: Plasma concentration of RTX, Mean) was 0.349 ng/mL, the concentration at 1 h (male, dog, plasma, other: intravesical instillation, 250 mcg, male dogs, 250 mcg intravesical, 1 h, read-out: Plasma concentration of RTX, Mean) was 0.208 ng/mL and the concentration at 2 h (male, dog, plasma, other: intravesical instillation, 250 mcg, male dogs, 250 mcg intravesical, 2 h, read-out: Plasma concentration of RTX, Mean) was 0.0615 ng/mL. For the same compound, the concentration at 4 h (male, dog, plasma, other: intravesical instillation, 250 mcg, male dogs, 250 mcg intravesical, 4 h, read-out: Plasma concentration of RTX, Mean) was 0 ng/mL, the concentration at 6 h (male, dog, plasma, other: intravesical instillation, 250 mcg, male dogs, 250 mcg intravesical, 6 h, read-out: Plasma concentration of RTX, Mean) was 0 ng/mL and the concentration at 12 h (male, dog, plasma, other: intravesical instillation, 250 mcg, male dogs, 250 mcg intravesical, 12 h, read-out: Plasma concentration of RTX, Mean) was 0 ng/mL. The concentration at 24 h (male, dog, plasma, other: intravesical instillation, 250 mcg, male dogs, 250 mcg intravesical, 24 h, read-out: Plasma concentration of RTX, Mean) was 0 ng/mL, the concentration at 36 h (male, dog, plasma, other: intravesical instillation, 250 mcg, male dogs, 250 mcg intravesical, 36 h, read-out: Plasma concentration of RTX, Mean) was 0 ng/mL and the concentration at 48 h (male, dog, plasma, other: intravesical instillation, 250 mcg, male dogs, 250 mcg intravesical, 48 h, read-out: Plasma concentration of RTX, Mean) was 0 ng/mL. It also gave a concentration at 60 h (male, dog, plasma, other: intravesical instillation, 250 mcg, male dogs, 250 mcg intravesical, 60 h, read-out: Plasma concentration of RTX, Mean) of 0 ng/mL and a concentration at 72 h (male, dog, plasma, other: intravesical instillation, 250 mcg, male dogs, 250 mcg intravesical, 72 h, read-out: Plasma concentration of RTX, Mean) of 0 ng/mL.
